Earlier results in patent US8609138B2, “ω3 fatty acid compound preparation” (Mochida Pharmaceutical Co., Ltd., priority 2010, dated 2013).

Key:
[1] = pH 7.4; Non-Patent Literature 1
[2] = pharmaceutical products; Non-Patent Literatures 2-4

Row | Compound | log P7.4; water-octanol partition coefficient at a pH of 7.4 [1] | partition coefficient (octanol-water partition coefficient) [2]
1 | CC(C)c1nc(N(C)S(C)(=O)=O)nc(-c2ccc(F)cc2)c1/C=C/[C@@H](O)C[C@@H](O)CC(=O)O [rosuvastatin] | ~-0.33 | 
2 | CCC(C)(C)C(=O)O[C@H]1C[C@@H](C)C=C2C=C[C@H](C)[C@H](CC[C@@H]3C[C@@H](O)CC(=O)O3)[C@H]21 [simvastatin] | 1.60 | 
3 | CC[C@H](C)C(=O)O[C@H]1C[C@H](O)C=C2C=C[C@H](C)[C@H](CC[C@@H](O)C[C@@H](O)CC(=O)O)[C@H]21 [pravastatin] | −0.84 | 
4 | CC(C)c1nc(N(C)S(C)(=O)=O)nc(-c2ccc(F)cc2)c1/C=C/[C@@H](O)C[C@@H](O)CC(=O)[O-].CC(C)c1nc(N(C)S(C)(=O)=O)nc(-c2ccc(F)cc2)c1/C=C/[C@@H](O)C[C@@H](O)CC(=O)[O-].[Ca+2] [rosuvastatin calcium] |  | −0.3±0.1
5 | CC[C@H](C)C(=O)O[C@H]1C[C@H](O)C=C2C=C[C@H](C)[C@H](CC[C@@H](O)C[C@@H](O)CC(=O)O)[C@H]21 [Pravastatin sodium] |  | −0.33
